How the values were obtained:
NF-κB = NF-κB luciferase reporter assay in RAW 264.7 macrophages; assay type: cell-based; conditions: Mus musculus, RAW264.7; RAW 264.7 reporter cells, 2 hour pretreatment, 200 ng/ml LPS for 3 hours; read-out: NF-kB inhibitory activity IC50
Experimental: RAW 264.7 cells stably expressing a 3× NFkB response elemement-drive luciferase reporter were seeded into 96 well plates in sera-free medium (Optimem) 18 hours prior to compound application. Compounds of the invention were prepared by first making 100 mM stock solutions in EtOH. Stock solutions were then diluted 1:100 in low LPS FBS (Gemini BenchMark 100-106), mixed vigorously and allowed to incubate at room temperature for 30 minutes. 1:2 serial dilutions were then made in FBS supplemented with 1% EtOH, mixed vigorously, and again allowed to incubate at room temperature for 30 minutes before adding to RAW 264.7 reporter cells (final concentrations: 10% FBS, 100 uM highest compound dilution, 0.1% EtOH) for a 2 hour pretreatment prior to stimulation with LPS. Cells were then stimulated with 200 ng/ml LPS or vehicle control for 3 hours in the presence of the compounds of the invention. A set of six vehicles was left unstimulated with LPS in order to measure the assay floor. AlamarBlue viability dye (Invitrogen) was added to cells simultaneously with the delivery of LPS (final AlamarBlue concentration of 10%).
After the 3 h incubation period with LPS, cell viability was measured by reading fluorescence (excitation 550 nm, emission 595 nm) with a Perkin Elmer Victor V plate reader. Then cell media was aspirated from each well. Luciferase signal was then developed by addition of the Britelite Plus reagent (Perkin Elmer). Luciferase activity was measured with the Perkin Elmer Victor V plate reader. NF-κB activity was expressed as a percent of the vehicle control wells (stimulated with LPS). Compounds were tested at 6 dose point titrations in triplicate to determine IC50 values. Table 1 summarizes the […] values for a number of bis-fatty acid conjugates in this NF-κB luciferase reporter assay.

[1] = test system: ApoB secretion in HepG2 cells; test: ApoB secretion in HepG2 cells (ELISA); assay type: cell-based; conditions: Homo sapiens, incubated for 16 hours, FIG. 1, read-out: IC50 (concentration at which 50% of ApoB secretion is inhibited)
Experimental: HepG2 cells (ATCC) are seeded at 25,000 cells per well in collagen-coated 96-well plates in growth media (DMEM with 10% fetal bovine serum). The following day, bis-fatty acid conjugates are complexed to lipoprotein-deficient fetal bovine serum at the appropriate concentration. Growth media is then removed from and the HepG2 cells are washed once with PBS. The lipoprotein-deficient FBS with the complexed bis-fatty acid conjugates is added to DMEM for a final 10% concentration. Each concentration of bis-fatty acid is tested in triplicate. Cells are incubated for 16 hours with the bis-fatty acid. Alamar Blue® (Invitrogen) is then added to the media to determine cell viability per the manufacturer's instructions. Two hours after Alamar Blue® addition, the media is removed and placed in a black 96-well plate. The plate is then read at 550 nm/590 nm to determine cell viability. The media is then used to determine ApoB concentrations using ELISA kits (Mabtech AB). Percent inhibition of ApoB secretion is determined by normalizing data to vehicle treated wells. For a given compound, an IC50 (concentration at which 50% of ApoB secretion is inhibited) can also be determined by using a 4 parameter-fit inhibition curve model (Graph Pad Prism®).

Compound	IC50 (NF-κB) [µM]	IC50 [1] [µM]
CC/C=C\C/C=C\C/C=C\C/C=C\C/C=C\C/C=C\CCC(=O)N1CCN(C(=O)CCC/C=C\C/C=C\C/C=C\C/C=C\C/C=C\CC)CC1 [I-67, (4Z,7Z,10Z,13Z,16Z,19Z)-1-[4-((5Z,8Z,11Z,14Z,17Z)-icosa-5,8,11,14,17-pentaenoyl)-piperazin-1-yl]-docosa-4,7,10,13,16,19-hexaen-1-one]	< 200	–
CC/C=C\C/C=C\C/C=C\C/C=C\C/C=C\C/C=C\CCC(=O)O [DHA, docosahexaenoic acid, reference compound]	> 200	–
CC/C=C\C/C=C\C/C=C\C/C=C\C/C=C\C/C=C\CCC(=O)N[C@H](C(=O)OC)[C@@H](C)OC(=O)[C@H](C)NC(=O)CCC/C=C\C/C=C\C/C=C\C/C=C\C/C=C\CC [I-65, (2S,3R)-methyl 2-((4Z,7Z,10Z,13Z,16Z,19Z)-docosa-4,7,10,13,16,19-hexaenamido)-3-((S)-2-((5Z,8Z,11Z,14Z,17Z)-icosa-5,8,11,14,17-pentaenamido)propanoyloxy)butanoate]	< 50	–
CC/C=C\C/C=C\C/C=C\C/C=C\C/C=C\C/C=C\CCC(=O)NCCNC(=O)CC/C=C\C/C=C\C/C=C\C/C=C\C/C=C\C/C=C\CC [I-1, (4Z,7Z,10Z,13Z,16Z,19Z)-docosa-4,7,10,13,16,19-hexaenoic acid [2-((4Z,7Z,10Z,13Z,16Z,19Z)-docosa-4,7,10,13,16,19-hexaenoylamino)-ethyl]-amide]	< 200	–
CC/C=C\C/C=C\C/C=C\C/C=C\C/C=C\C/C=C\CCC(=O)NCCN(C)CCNC(=O)CC/C=C\C/C=C\C/C=C\C/C=C\C/C=C\C/C=C\CC [I-2, (4Z,7Z,10Z,13Z,16Z,19Z)-docosa-4,7,10,13,16,19-hexaenoic acid (2-{[2-((4Z,7Z,10Z,13Z,16Z,19Z)-docosa-4,7,10,13,16,19-hexaenoylamino)-ethyl]-methyl-amino}-ethyl)-amide]	< 50	–
CC/C=C\C/C=C\C/C=C\C/C=C\C/C=C\CCCC(=O)N[C@@H](CCCCNC(=O)CCCC[C@@H]1CCSS1)C(=O)O [I-107, (S)-6-((R)-5-[1,2]dithiolan-3-yl-pentanoylamino)-2-((5Z,8Z,11Z,14Z,17Z)-icosa-5,8,11,14,17-pentaenoylamino)-hexanoic acid]	< 200	–
CC/C=C\C/C=C\C/C=C\C/C=C\C/C=C\CCCC(=O)O [EPA, eicosapentaenoic acid, reference compound]	> 200	–
CC/C=C\C/C=C\C/C=C\C/C=C\C/C=C\C/C=C\CCC(=O)NCCNC(=O)CCC/C=C\C/C=C\C/C=C\C/C=C\C/C=C\CC [I-37, (4Z,7Z,10Z,13Z,16Z,19Z)-docosa-4,7,10,13,16,19-hexaenoic acid [2-((5Z,8Z,11Z,14Z,17Z)-icosa-5,8,11,14,17-pentaenoylamino)-ethyl]-amide]	< 200	–
CC/C=C\C/C=C\C/C=C\C/C=C\C/C=C\C/C=C\CCC(=O)NCCN(C)CCNC(=O)CCC/C=C\C/C=C\C/C=C\C/C=C\C/C=C\CC [I-39, (4Z,7Z,10Z,13Z,16Z,19Z)-docosa-4,7,10,13,16,19-hexaenoic acid (2-{[2((5Z,8Z,11Z,14Z,17Z)-icosa-5,8,11,14,17-pentaenoylamino)-ethyl]-methyl-amino}-ethyl)-amide]	< 50	–
CC/C=C\C/C=C\C/C=C\C/C=C\C/C=C\C/C=C\CCC(=O)N[C@@H](C)C(=O)O[C@H](C)[C@H](NC(=O)CCC/C=C\C/C=C\C/C=C\C/C=C\C/C=C\CC)C(=O)OC [I-66, (2S,3R)-methyl 3-((S)-2-((4Z,7Z,10Z,13Z,16Z,19Z)-docosa-4,7,10,13,16,19-hexaenamido)propanoyloxy)-2-((5Z,8Z,11Z,14Z,17Z)-icosa-5,8,11,14,17-pentaenamido)butanoate]	< 50	9.5
CC/C=C\C/C=C\C/C=C\C/C=C\C/C=C\C/C=C\CCC(=O)N[C@@H](CCCCNC(=O)CCC/C=C\C/C=C\C/C=C\C/C=C\C/C=C\CC)C(=O)O [I-45, (S)-2-((4Z,7Z,10Z,13Z,16Z,19Z)-docosa-4,7,10,13,16,19-hexaenoylamino)-6-((5Z,8Z,11Z,14Z,17Z)-icosa-5,8,11,14,17-pentaenoylamino)-hexanoic acid]	< 50	–
